Non-standard residues stand in square brackets, D forms with d. Residues, ends and D or L forms follow the SMILES beside them. *: point of attachment. DOTA = O=C(O)CN1CCN(CC(=O)O)CCN(CC(=O)*)CCN(CC(=O)O)CC1; Bpa = N[C@@H](Cc1ccc(C(=O)c2ccccc2)cc1)C(=O)O; d2Nal = N[C@H](Cc1ccc2ccccc2c1)C(=O)O; azaGly = NNC(=O)O; Sar = CNCC(=O)O
system: LHRH binding sites on human ovarian cancer cells (EFO-27); settings: not given
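Further: Cell-associated radioactivity on confluent EFO-27 monolayers in 96-well plates, measured by microplate scintillation counting.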

| Structure (SMILES) | EC50 |
| --- | --- |
| N=C(N)NCCC[C@H](NC(=O)[C@@H](Cc1ccc2ccccc2c1)NC(=O)CN1CCN(CC(=O)O)CCN(CC(=O)O)CCN(CC(=O)O)CC1)C(=O)N[C@@H](Cc1c[nH]c2ccccc12)C(=O)N[C@@H](CO)C(=O)N[C@@H](Cc1c[nH]cn1)C(=O)N[C@H](CCCNC(=N)N)C(=O)N[C@@H](Cc1c[nH]c2ccccc12)C(=O)N[C@@H](Cc1ccc(C(=O)c2ccccc2)cc1)C(=O)N1C[C@H](O)C[C@H]1C(=O)NNC(N)=O [compound 2952] | 0.28 µM |
| CN(CC(=O)N[C@@H](Cc1c[nH]cn1)C(=O)N[C@@H](Cc1c[nH]c2ccccc12)C(=O)N[C@@H](CO)C(=O)N[C@@H](Cc1c[nH]cn1)C(=O)N[C@H](CCCNC(=N)N)C(=O)N[C@@H](Cc1c[nH]c2ccccc12)C(=O)N[C@@H](Cc1ccc(CN)cc1)C(=O)N1CCC[C@H]1C(=O)NNC(N)=O)C(=O)CN1CCN(CC(=O)O)CCN(CC(=O)O)CCN(CC(=O)O)CC1 [BRU-2760] | 3.55 µM |
| NCCCC[C@@H](NC(=O)[C@H](Cc1c[nH]cn1)NC(=O)[C@H](CO)NC(=O)[C@H](Cc1c[nH]c2ccccc12)NC(=O)[C@H](Cc1c[nH]cn1)NC(=O)[C@@H]1CCC(=O)N1)C(=O)N[C@@H](Cc1c[nH]c2ccccc12)C(=O)N[C@@H](Cc1ccc(O)cc1)C(=O)N1CCC[C@H]1C(=O)NNC(N)=O [BRU-2437] (HELM PEPTIDE1{[Glp].H.W.S.H.[dK].W.Y.P.[O=C(NN[*:1])[*:2]].[am]}$$$$V2.0) | 8.54 µM |
| CN(CC(=O)N[C@@H](Cc1c[nH]cn1)C(=O)N[C@@H](Cc1c[nH]c2ccccc12)C(=O)N[C@@H](CO)C(=O)N[C@@H](Cc1c[nH]cn1)C(=O)N[C@H](CCCNC(=N)N)C(=O)N[C@@H](Cc1c[nH]c2ccccc12)C(=O)N[C@@H](Cc1c[nH]c2ccccc12)C(=O)N1CCC[C@H]1C(=O)NNC(N)=O)C(=O)CN1CCN(CC(=O)O)CCN(CC(=O)O)CCN(CC(=O)O)CC1 [BRU-2724] (HELM PEPTIDE1{[O=C(O)CN1CCN(CC(=O)O)CCN(CC(=O)[*:2])CCN(CC(=O)O)CC1].[Sar].H.W.S.H.[dR].W.W.P.[O=C(NN[*:1])[*:2]].[am]}$$$$V2.0) | 2.67 µM |
| N=C(N)NCCC[C@H](NC(=O)[C@@H](Cc1ccc2ccccc2c1)NC(=O)CN1CCN(CC(=O)O)CCN(CC(=O)O)CCN(CC(=O)O)CC1)C(=O)N[C@@H](Cc1c[nH]c2ccccc12)C(=O)N[C@@H](CO)C(=O)N[C@@H](Cc1c[nH]cn1)C(=O)N[C@H](CCCNC(=N)N)C(=O)N[C@@H](Cc1c[nH]c2ccccc12)C(=O)N[C@@H](Cc1ccc(C(=O)c2ccccc2)cc1)C(=O)N1CCC[C@H]1C(=O)NCCO [compound 2970] | 0.51 µM |
| N=C(N)NCCC[C@H](NC(=O)[C@@H](Cc1ccc2ccccc2c1)NC(=O)CN1CCN(CC(=O)O)CCN(CC(=O)O)CCN(CC(=O)O)CC1)C(=O)N[C@@H](CCC(=O)O)C(=O)N[C@@H](CO)C(=O)N[C@@H](Cc1c[nH]cn1)C(=O)N[C@H](CCCNC(=N)N)C(=O)N[C@@H](Cc1c[nH]c2ccccc12)C(=O)N[C@@H](Cc1ccc(C(=O)c2ccccc2)cc1)C(=O)N1CCC[C@H]1C(=O)NNC(N)=O [BRU-3110] ({DOTA}-[d2Nal]RESH[dR]W[Bpa]P[azaGly]-NH2; C-terminus assumed) | 2.6 µM |
| CN(CC(=O)N[C@@H](Cc1c[nH]cn1)C(=O)N[C@@H](Cc1c[nH]c2ccccc12)C(=O)N[C@@H](CO)C(=O)N[C@@H](Cc1c[nH]cn1)C(=O)N[C@H](CCCNC(=N)N)C(=O)N[C@@H](Cc1c[nH]c2ccccc12)C(=O)N[C@@H](Cc1ccc(C(=O)c2ccccc2)cc1)C(=O)N1CCC[C@H]1C(=O)NNC(N)=O)C(=O)c1ccc(CNC(=O)CN2CCN(CC(=O)O)CCN(CC(=O)O)CCN(CC(=O)O)CC2)cc1 [compound 2727] | 0.65 µM |
| CSCC[C@H](NC(=O)[C@H](Cc1c[nH]c2ccccc12)NC(=O)[C@H](CCCNC(=N)N)NC(=O)[C@@H](Cc1ccc2ccccc2c1)NC(=O)CN1CCN(CC(=O)O)CCN(CC(=O)O)CCN(CC(=O)O)CC1)C(=O)N[C@@H](Cc1c[nH]cn1)C(=O)N[C@H](CCCNC(=N)N)C(=O)N[C@@H](Cc1c[nH]c2ccccc12)C(=O)N[C@@H](Cc1ccc(C(=O)c2ccccc2)cc1)C(=O)N1CCC[C@H]1C(=O)NNC(N)=O [BRU-2964] ({DOTA}-[d2Nal]RWMH[dR]W[Bpa]P[azaGly]-NH2) | 0.22 µM |
| CC(=O)N[C@@H](Cc1ccc(CNC(=O)CN2CCN(CC(=O)O)CCN(CC(=O)O)CCN(CC(=O)O)CC2)cc1)C(=O)N[C@@H](Cc1c[nH]cn1)C(=O)N[C@@H](Cc1c[nH]c2ccccc12)C(=O)N[C@@H](CO)C(=O)N[C@@H](Cc1c[nH]cn1)C(=O)N[C@H](CCCNC(=N)N)C(=O)N[C@@H](Cc1c[nH]c2ccccc12)C(=O)N[C@@H](Cc1ccc(C(=O)c2ccccc2)cc1)C(=O)N1CCC[C@H]1C(=O)NNC(N)=O [BRU-2881] | 1.38 µM |
| CNCC(=O)N[C@@H](CCCNC(=N)N)C(=O)N[C@@H](Cc1c[nH]c2ccccc12)C(=O)N[C@@H](CO)C(=O)N[C@@H](Cc1c[nH]cn1)C(=O)N[C@H](CCCNC(=N)N)C(=O)N[C@@H](Cc1c[nH]c2ccccc12)C(=O)N[C@@H](Cc1ccc(C(=O)c2ccccc2)cc1)C(=O)N1CCC[C@H]1C(=O)NCc1cccc(CNC(=O)CN2CCN(CC(=O)O)CCN(CC(=O)O)CCN(CC(=O)O)CC2)n1 [compound 3080] | 0.23 ± 0.1 µM |
| CC(=O)N[C@H](Cc1ccc2ccccc2c1)C(=O)N[C@@H](CCCNC(=N)N)C(=O)N[C@@H](Cc1c[nH]c2ccccc12)C(=O)N[C@@H](CO)C(=O)N[C@@H](Cc1c[nH]cn1)C(=O)N[C@H](CCCNC(=N)N)C(=O)N[C@@H](Cc1c[nH]c2ccccc12)C(=O)N[C@@H](Cc1ccc(C(=O)c2ccccc2)cc1)C(=O)N1CCC[C@H]1C(=O)NCCOCCNC(=O)CN1CCN(CC(=O)O)CCN(CC(=O)O)CCN(CC(=O)O)CC1 [BRU-2992] | 0.23 to 0.5 µM |

same assay, conditions: BRU-2813 vs BRU-2666; BRU-2964 vs BRU-2813

| Structure (SMILES) | more potency than the comparator analog |
| --- | --- |
| CSCC[C@H](NC(=O)[C@H](Cc1c[nH]c2ccccc12)NC(=O)[C@H](CCCNC(=N)N)NC(=O)[C@@H](Cc1ccc2ccccc2c1)NC(=O)CN1CCN(CC(=O)O)CCN(CC(=O)O)CCN(CC(=O)O)CC1)C(=O)N[C@@H](Cc1c[nH]cn1)C(=O)N[C@H](CCCNC(=N)N)C(=O)N[C@@H](Cc1c[nH]c2ccccc12)C(=O)N[C@@H](Cc1ccc(C(=O)c2ccccc2)cc1)C(=O)N1CCC[C@H]1C(=O)NNC(N)=O [BRU-2964] ({DOTA}-[d2Nal]RWMH[dR]W[Bpa]P[azaGly]-NH2) | 30% |

same assay, conditions: EFO-27 cells, competition with [125I-Tyr8]BRU-2477, 90 min

| Structure (SMILES) | EC50 |
| --- | --- |
| CN(CC(=O)N[C@@H](Cc1c[nH]cn1)C(=O)N[C@@H](Cc1c[nH]c2ccccc12)C(=O)N[C@@H](CO)C(=O)N[C@@H](Cc1c[nH]cn1)C(=O)N[C@H](Cc1c[nH]c2ccccc12)C(=O)N[C@@H](Cc1c[nH]c2ccccc12)C(=O)N[C@@H](Cc1ccc(C(=O)c2ccccc2)cc1)C(=O)N1CCC[C@H]1C(=O)NNC(N)=O)C(=O)CN1CCN(CC(=O)O)CCN(CC(=O)O)CCN(CC(=O)O)CC1 [compound 2731] ({DOTA}-[Sar]HWSH[dW]W[Bpa]P[azaGly]-NH2) | 1.36 µM |

same assay, conditions: Table 5: modifications of amino acids at positions 1 and 2; in vitro binding on EFO-27 cells

| Structure (SMILES) | EC50 |
| --- | --- |
| N=C(N)NCCC[C@@H](NC(=O)[C@H](Cc1c[nH]cn1)NC(=O)[C@H](CO)NC(=O)[C@H](Cc1c[nH]c2ccccc12)NC(=O)[C@H](Cc1c[nH]cn1)NC(=O)CNC(=O)CN1CCN(CC(=O)O)CCN(CC(=O)O)CCN(CC(=O)O)CC1)C(=O)N[C@@H](Cc1c[nH]c2ccccc12)C(=O)N[C@@H](Cc1ccc(C(=O)c2ccccc2)cc1)C(=O)N1CCC[C@H]1C(=O)NNC(N)=O [BRU-2733] | 1.18 µM |
| CN(CC(=O)N[C@@H](Cc1cncn1C)C(=O)N[C@@H](Cc1c[nH]c2ccccc12)C(=O)N[C@@H](CO)C(=O)N[C@@H](Cc1c[nH]cn1)C(=O)N[C@H](CCCNC(=N)N)C(=O)N[C@@H](Cc1c[nH]c2ccccc12)C(=O)N[C@@H](Cc1ccc(C(=O)c2ccccc2)cc1)C(=O)N1CCC[C@H]1C(=O)NNC(N)=O)C(=O)CN1CCN(CC(=O)O)CCN(CC(=O)O)CCN(CC(=O)O)CC1 [BRU-2759] | 10 µM |

same assay, conditions: ratio of EC50 to BRU-2813 (EC50=0.33 μM)

| Structure (SMILES) | binding potency, times lower than BRU-2813 |
| --- | --- |
| N=C(N)NCCC[C@H](NC(=O)[C@@H](Cc1ccc2ccccc2c1)NC(=O)CN1CCN(CC(=O)O)CCN(CC(=O)O)CCN(CC(=O)O)CC1)C(=O)N[C@@H](CCC(=O)O)C(=O)N[C@@H](CO)C(=O)N[C@@H](Cc1c[nH]cn1)C(=O)N[C@H](CCCNC(=N)N)C(=O)N[C@@H](Cc1c[nH]c2ccccc12)C(=O)N[C@@H](Cc1ccc(C(=O)c2ccccc2)cc1)C(=O)N1CCC[C@H]1C(=O)NNC(N)=O [BRU-3110] ({DOTA}-[d2Nal]RESH[dR]W[Bpa]P[azaGly]-NH2; C-terminus assumed) | ~8 |

From patent US20120045393A1 (priority 2009, published 2012)
